According to ChEMBL document CHEMBL1201862, “PubChem BioAssay data set” (2004):
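Growth conditions: 96-well plates. Treatment: test compound, 48 hours, 5 concentrations. Analysis: linear interpolation between bracketing concentrations; unreached endpoints set to highest concentration. Here, GI50 denotes the concentration required for 50% inhibition of growth.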 Calls of active or inactive are those of the source. Cut-off read from the data, not from the text of the source: active = GI50 up to about 1.1 µM and inactive = higher.

Legend:
Test in all cases: NCI tumour cell line growth inhibition, 48 h
SF-295 = tested on: SF-295
SK-MEL-5 = tested on: SK-MEL-5
SNB-75 = tested on: SNB-75
Malme-3M = tested on: Malme-3M
A498 = tested on: A498
LXFL 529 = tested on: LXFL 529
OVCAR-5 = tested on: OVCAR-5
HOP-92 = tested on: HOP-92
HL-60 = tested on: HL-60
UO-31 = tested on: UO-31
NCI-H226 = tested on: NCI-H226
M14 = tested on: M14
HT-29 = tested on: HT-29
U-251 = tested on: U-251
EKVX = tested on: EKVX
SN12C = tested on: SN12C
HOP-62 = tested on: HOP-62
KM12 = tested on: KM12

Row | SMILES | GI50 (SF-295) | GI50 (SK-MEL-5) | GI50 (SNB-75) | GI50 (Malme-3M) | GI50 (A498) | GI50 (LXFL 529) | GI50 (OVCAR-5) | GI50 (HOP-92) | GI50 (HL-60) | GI50 (UO-31) | GI50 (NCI-H226) | GI50 (M14) | GI50 (HT-29) | GI50 (U-251) | GI50 (EKVX) | GI50 (SN12C) | GI50 (HOP-62) | GI50 (KM12)
1 | CCc1cccc(C)c1N1C(=O)C(=O)C(c2nc3ccccc3o2)/C(=N/NC(=S)NN)C1=O (stereo not given) | > 100 µM (inactive) | > 100 µM (inactive) | > 100 µM (inactive) | > 100 µM (inactive) | > 100 µM (inactive) | > 100 µM (inactive) | > 100 µM (inactive) | > 100 µM (inactive) | > 100 µM (inactive) | > 100 µM (inactive) | > 100 µM (inactive) | > 100 µM (inactive) | > 100 µM (inactive) | > 100 µM (inactive) | > 100 µM (inactive) | > 100 µM (inactive) | > 100 µM (inactive) | > 100 µM (inactive)
2 | N#CC(C(=O)/C(=N\NC(N)=O)C(C#N)c1ccc(Cl)cc1)c1ccc(Cl)cc1 (stereo not given) | > 100 µM (inactive) | > 100 µM (inactive) | – | > 100 µM (inactive) | > 100 µM (inactive) | > 100 µM (inactive) | > 100 µM (inactive) | 68.4 µM (inactive) | > 100 µM (inactive) | > 100 µM (inactive) | > 100 µM (inactive) | > 100 µM (inactive) | > 100 µM (inactive) | > 100 µM (inactive) | > 100 µM (inactive) | > 100 µM (inactive) | > 100 µM (inactive) | > 100 µM (inactive)
3 | C[Si](C)(C)/C=C\CCO | > 100 µM (inactive) | > 100 µM (inactive) | > 100 µM (inactive) | > 100 µM (inactive) | > 100 µM (inactive) | > 100 µM (inactive) | > 100 µM (inactive) | > 100 µM (inactive) | > 100 µM (inactive) | > 100 µM (inactive) | – | > 100 µM (inactive) | > 100 µM (inactive) | > 100 µM (inactive) | > 100 µM (inactive) | > 100 µM (inactive) | – | > 100 µM (inactive)
4 | C/C(=C\CC/C=C(\C)CC/C=C(\C)CCC1SC1(C)C)CC/C=C(\C)CCC1OC1(C)C (stereo not given) | > 100 µM (inactive) | > 100 µM (inactive) | > 100 µM (inactive) | > 100 µM (inactive) | > 100 µM (inactive) | > 100 µM (inactive) | – | > 100 µM (inactive) | > 100 µM (inactive) | > 100 µM (inactive) | > 100 µM (inactive) | > 100 µM (inactive) | > 100 µM (inactive) | > 100 µM (inactive) | > 100 µM (inactive) | > 100 µM (inactive) | – | > 100 µM (inactive)
5 | Cc1cc(C)nc(NS(=O)(=O)c2ccc(NC(=O)c3cccc4c(Nc5ccc(S(=O)(=O)N=C(N)N)cc5)c5ccccc5nc34)cc2)n1 | 27.4 µM (inactive) | 54.8 µM (inactive) | 38 µM (inactive) | > 100 µM (inactive) | > 100 µM (inactive) | 3.88 µM (inactive) | > 100 µM (inactive) | 19.9 µM (inactive) | 5.56 µM (inactive) | 46.6 µM (inactive) | – | 94.6 µM (inactive) | 37.1 µM (inactive) | 33.9 µM (inactive) | 35 µM (inactive) | 50.7 µM (inactive) | 37.8 µM (inactive) | 6.17 µM (inactive)
6 | CCOc1ccc2[nH]c3c(C)c4ccncc4c(C)c3c2c1 | 1.02 µM (active) | 1.51 µM (inactive) | 1.71 µM (inactive) | 1.41 µM (inactive) | 1.8 µM (inactive) | 0.698 µM (active) | 1.58 µM (inactive) | 1.45 µM (inactive) | 1.2 µM (inactive) | 2.91 µM (inactive) | 1.82 µM (inactive) | 1.55 µM (inactive) | 0.71 µM (active) | 1 µM (active) | 1.46 µM (inactive) | 0.564 µM (active) | 1.08 µM (active) | 1 µM (active)
7 | CN(C)C(=O)NC(=S)N(C)C | > 100 µM (inactive) | > 100 µM (inactive) | > 100 µM (inactive) | > 100 µM (inactive) | > 100 µM (inactive) | > 100 µM (inactive) | > 100 µM (inactive) | > 100 µM (inactive) | > 100 µM (inactive) | > 100 µM (inactive) | 55.1 µM (inactive) | > 100 µM (inactive) | > 100 µM (inactive) | 0.206 µM (active) | > 100 µM (inactive) | > 100 µM (inactive) | 0.294 µM (active) | > 100 µM (inactive)
